# US6583175B2, “Alkylxanthates and use of alkylxanthates in the integrated pest management” (Council of Scientific & Industrial Research, priority 2001, dated 2003)
# Read-outs that look alike come from different tables or passages of the source.
# Experiments:
# Helicoverpa armigera = format: in vivo; conditions: topical
# Aedes aegypti = format: in vivo; conditions: IV instar larvae, 24 hours
# Spodoptera litura [1] = test: Antifeedant activity against late third instar of Spodoptera litura (leaf disk, oral feeding); format: in vivo; conditions: for Concentration required for 50% leaf protection EC50 ± S.E.: late third instar
# Spodoptera litura [2] = format: in vivo; conditions: topical
# [3] = tested on: Brine shrimp, Artemia salina; conditions: in vivo
structure (smiles),measurement,setting,value
"CCCCOC(=S)SCSC(=S)OCCCC [Methylene bis (n-butylxanthate), Methylene Bis(n-butylxanthate)]",Adult emergence: Abnormal adults,Helicoverpa armigera; 20 μg/Insect,41
same,Adult emergence: Intermediates,Helicoverpa armigera; 20 μg/Insect,17
same,Adult emergence: Non emergence,Helicoverpa armigera; 20 μg/Insect,3
same,Adult emergence: Normal adults,Helicoverpa armigera; 20 μg/Insect,27
same,Larval mortality (%),Helicoverpa armigera; 20 μg/Insect,7%
same,Pupal Formation: Abnormal pupa,Helicoverpa armigera; 20 μg/Insect,36
same,Pupal Formation: Normal pupa,Helicoverpa armigera; 20 μg/Insect,52
same,Pupal Formation: Pupal Mortality,Helicoverpa armigera; 20 μg/Insect,5
same,Adult emergence: Abnormal adults,Helicoverpa armigera; 35 μg/Insect,11
same,Adult emergence: Intermediates,Helicoverpa armigera; 35 μg/Insect,18
same,Adult emergence: Non emergence,Helicoverpa armigera; 35 μg/Insect,9
same,Adult emergence: Normal adults,Helicoverpa armigera; 35 μg/Insect,17
same,Larval mortality (%),Helicoverpa armigera; 35 μg/Insect,12%
same,Pupal Formation: Abnormal pupa,Helicoverpa armigera; 35 μg/Insect,28
same,Pupal Formation: Normal pupa,Helicoverpa armigera; 35 μg/Insect,27
same,Pupal Formation: Pupal Mortality,Helicoverpa armigera; 35 μg/Insect,33
same,Adult emergence: Abnormal adults,Helicoverpa armigera; 50 μg/Insect,9
same,Adult emergence: Intermediates,Helicoverpa armigera; 50 μg/Insect,6
same,Adult emergence: Non emergence,Helicoverpa armigera; 50 μg/Insect,21
same,Adult emergence: Normal adults,Helicoverpa armigera; 50 μg/Insect,8
same,Larval mortality (%),Helicoverpa armigera; 50 μg/Insect,28%
same,Pupal Formation: Abnormal pupa,Helicoverpa armigera; 50 μg/Insect,32
same,Pupal Formation: Normal pupa,Helicoverpa armigera; 50 μg/Insect,12
same,Pupal Formation: Pupal Mortality,Helicoverpa armigera; 50 μg/Insect,28
same,Adult emergence: Abnormal adults,Helicoverpa armigera; 75 μg/Insect,1
same,Adult emergence: Intermediates,Helicoverpa armigera; 75 μg/Insect,2
same,Adult emergence: Non emergence,Helicoverpa armigera; 75 μg/Insect,24
same,Adult emergence: Normal adults,Helicoverpa armigera; 75 μg/Insect,0
same,Larval mortality (%),Helicoverpa armigera; 75 μg/Insect,49%
same,Pupal Formation: Abnormal pupa,Helicoverpa armigera; 75 μg/Insect,27
same,Pupal Formation: Normal pupa,Helicoverpa armigera; 75 μg/Insect,0
same,Pupal Formation: Pupal Mortality,Helicoverpa armigera; 75 μg/Insect,24
same,Adult emergence: Abnormal adults,Helicoverpa armigera; 100 μg/Insect,0
same,Adult emergence: Intermediates,Helicoverpa armigera; 100 μg/Insect,2
same,Adult emergence: Non emergence,Helicoverpa armigera; 100 μg/Insect,20
same,Adult emergence: Normal adults,Helicoverpa armigera; 100 μg/Insect,0
same,Larval mortality (%),Helicoverpa armigera; 100 μg/Insect,61%
same,Pupal Formation: Abnormal pupa,Helicoverpa armigera; 100 μg/Insect,22
same,Pupal Formation: Normal pupa,Helicoverpa armigera; 100 μg/Insect,0
same,Pupal Formation: Pupal Mortality,Helicoverpa armigera; 100 μg/Insect,17
same,LC50 ± S.E.,Aedes aegypti,5.33 ± 0.97 µg/mL
same,A.I. (Anti-feedent Index),Spodoptera litura [1]; 10 μg/sq. cm.,5.50
same,Percent leaf consumption 12 hr,Spodoptera litura [1]; 10 μg/sq. cm.,48.55%
same,Percent leaf consumption 24 hr,Spodoptera litura [1]; 10 μg/sq. cm.,85.1%
same,A.I. (Anti-feedent Index),Spodoptera litura [1]; 15 μg/sq. cm.,22.27
same,Percent leaf consumption 12 hr,Spodoptera litura [1]; 15 μg/sq. cm.,35.2%
same,Percent leaf consumption 24 hr,Spodoptera litura [1]; 15 μg/sq. cm.,60.4%
same,A.I. (Anti-feedent Index),Spodoptera litura [1]; 20 μg/sq. cm.,35.14
same,Percent leaf consumption 12 hr,Spodoptera litura [1]; 20 μg/sq. cm.,22.5%
same,Percent leaf consumption 24 hr,Spodoptera litura [1]; 20 μg/sq. cm.,45.6%
same,A.I. (Anti-feedent Index),Spodoptera litura [1]; 25 μg/sq. cm.,64.22
same,Percent leaf consumption 12 hr,Spodoptera litura [1]; 25 μg/sq. cm.,3.5%
same,Percent leaf consumption 24 hr,Spodoptera litura [1]; 25 μg/sq. cm.,20.7%
same,A.I. (Anti-feedent Index),Spodoptera litura [1]; 30 μg/sq. cm.,85.37
same,Percent leaf consumption 12 hr,Spodoptera litura [1]; 30 μg/sq. cm.,0%
same,Percent leaf consumption 24 hr,Spodoptera litura [1]; 30 μg/sq. cm.,7.5%
same,Concentration required for 50% leaf protection EC50 ± S.E.,Spodoptera litura [1],17.11 ± 1.36 μg/cm^2
same,Adult emergence: Abnormal adults,Spodoptera litura [2]; 5 μg/Insect,26
same,Adult emergence: Intermediates,Spodoptera litura [2]; 5 μg/Insect,28
same,Adult emergence: Non-emergence,Spodoptera litura [2]; 5 μg/Insect,0
same,Adult emergence: Normal adults,Spodoptera litura [2]; 5 μg/Insect,41
same,Larval mortality (%),Spodoptera litura [2]; 5 μg/Insect,0%
same,Pupal Formation: Abnormal pupa,Spodoptera litura [2]; 5 μg/Insect,41
same,Pupal Formation: Normal pupa,Spodoptera litura [2]; 5 μg/Insect,59
same,Pupal Formation: Pupal Mortality,Spodoptera litura [2]; 5 μg/Insect,5
same,Adult emergence: Abnormal adults,Spodoptera litura [2]; 10 μg/Insect,22
same,Adult emergence: Intermediates,Spodoptera litura [2]; 10 μg/Insect,34
same,Adult emergence: Non-emergence,Spodoptera litura [2]; 10 μg/Insect,1
same,Adult emergence: Normal adults,Spodoptera litura [2]; 10 μg/Insect,36
same,Larval mortality (%),Spodoptera litura [2]; 10 μg/Insect,0%
same,Pupal Formation: Abnormal pupa,Spodoptera litura [2]; 10 μg/Insect,48
same,Pupal Formation: Normal pupa,Spodoptera litura [2]; 10 μg/Insect,52
same,Pupal Formation: Pupal Mortality,Spodoptera litura [2]; 10 μg/Insect,8
same,Adult emergence: Abnormal adults,Spodoptera litura [2]; 20 μg/Insect,27
same,Adult emergence: Intermediates,Spodoptera litura [2]; 20 μg/Insect,32
same,Adult emergence: Non-emergence,Spodoptera litura [2]; 20 μg/Insect,2
same,Adult emergence: Normal adults,Spodoptera litura [2]; 20 μg/Insect,24
same,Larval mortality (%),Spodoptera litura [2]; 20 μg/Insect,0%
same,Pupal Formation: Abnormal pupa,Spodoptera litura [2]; 20 μg/Insect,53
same,Pupal Formation: Normal pupa,Spodoptera litura [2]; 20 μg/Insect,47
same,Pupal Formation: Pupal Mortality,Spodoptera litura [2]; 20 μg/Insect,17
same,Adult emergence: Abnormal adults,Spodoptera litura [2]; 35 μg/Insect,23
same,Adult emergence: Intermediates,Spodoptera litura [2]; 35 μg/Insect,23
same,Adult emergence: Non-emergence,Spodoptera litura [2]; 35 μg/Insect,25
same,Adult emergence: Normal adults,Spodoptera litura [2]; 35 μg/Insect,7
same,Larval mortality (%),Spodoptera litura [2]; 35 μg/Insect,21%
same,Pupal Formation: Abnormal pupa,Spodoptera litura [2]; 35 μg/Insect,54
same,Pupal Formation: Normal pupa,Spodoptera litura [2]; 35 μg/Insect,25
same,Pupal Formation: Pupal Mortality,Spodoptera litura [2]; 35 μg/Insect,26
same,Adult emergence: Abnormal adults,Spodoptera litura [2]; 50 μg/Insect,6
same,Adult emergence: Intermediates,Spodoptera litura [2]; 50 μg/Insect,8
same,Adult emergence: Non-emergence,Spodoptera litura [2]; 50 μg/Insect,9
same,Adult emergence: Normal adults,Spodoptera litura [2]; 50 μg/Insect,5
same,Larval mortality (%),Spodoptera litura [2]; 50 μg/Insect,57%
same,Pupal Formation: Abnormal pupa,Spodoptera litura [2]; 50 μg/Insect,38
same,Pupal Formation: Normal pupa,Spodoptera litura [2]; 50 μg/Insect,5
same,Pupal Formation: Pupal Mortality,Spodoptera litura [2]; 50 μg/Insect,24
same,Adult emergence: Abnormal adults,Spodoptera litura [2]; 75 μg/Insect,1
same,Adult emergence: Intermediates,Spodoptera litura [2]; 75 μg/Insect,2
same,Adult emergence: Non-emergence,Spodoptera litura [2]; 75 μg/Insect,25
same,Adult emergence: Normal adults,Spodoptera litura [2]; 75 μg/Insect,0
same,Larval mortality (%),Spodoptera litura [2]; 75 μg/Insect,72%
same,Pupal Formation: Abnormal pupa,Spodoptera litura [2]; 75 μg/Insect,28
same,Pupal Formation: Normal pupa,Spodoptera litura [2]; 75 μg/Insect,0
same,Pupal Formation: Pupal Mortality,Spodoptera litura [2]; 75 μg/Insect,25
same,Adult emergence: Abnormal adults,Spodoptera litura [2]; 100 μg/Insect,0
same,Adult emergence: Intermediates,Spodoptera litura [2]; 100 μg/Insect,0
same,Adult emergence: Non-emergence,Spodoptera litura [2]; 100 μg/Insect,14
same,Adult emergence: Normal adults,Spodoptera litura [2]; 100 μg/Insect,0
same,Larval mortality (%),Spodoptera litura [2]; 100 μg/Insect,86%
same,Pupal Formation: Abnormal pupa,Spodoptera litura [2]; 100 μg/Insect,14
same,Pupal Formation: Normal pupa,Spodoptera litura [2]; 100 μg/Insect,0
same,Pupal Formation: Pupal Mortality,Spodoptera litura [2]; 100 μg/Insect,14
S=C(OCC1CCCO1)SCSC(=S)OCC1CCCO1 (stereo not shown) [methylene Bis (tetrahydrofurfuryl xanthate)],LC50 ± S.E.,[3],5.63 ± 0.62 µg/mL
same,LC50 ± S.E.,Aedes aegypti,3.77 ± 0.59 µg/mL
same,A.I. (Anti-feedent Index),Spodoptera litura [1]; 12.5 μg/sq. cm.,8.20
same,Percent leaf consumption 12 hr,Spodoptera litura [1]; 12.5 μg/sq. cm.,48.6%
same,Percent leaf consumption 24 hr,Spodoptera litura [1]; 12.5 μg/sq. cm.,80.6%
same,A.I. (Anti-feedent Index),Spodoptera litura [1]; 25 μg/sq. cm.,22.42
same,Percent leaf consumption 12 hr,Spodoptera litura [1]; 25 μg/sq. cm.,31.5%
same,Percent leaf consumption 24 hr,Spodoptera litura [1]; 25 μg/sq. cm.,60.2%
same,A.I. (Anti-feedent Index),Spodoptera litura [1]; 35 μg/sq. cm.,33.52
same,Percent leaf consumption 12 hr,Spodoptera litura [1]; 35 μg/sq. cm.,25.9%
same,Percent leaf consumption 24 hr,Spodoptera litura [1]; 35 μg/sq. cm.,47.3%
same,A.I. (Anti-feedent Index),Spodoptera litura [1]; 50 μg/sq. cm.,35.23
same,Percent leaf consumption 12 hr,Spodoptera litura [1]; 50 μg/sq. cm.,22.1%
same,Percent leaf consumption 24 hr,Spodoptera litura [1]; 50 μg/sq. cm.,45.5%
same,Concentration required for 50% leaf protection EC50 ± S.E.,Spodoptera litura [1],37.21 ± 9.67 μg/cm^2
same,Adult emergence: Abnormal adults,Spodoptera litura [2]; 5 μg/Insect,22
same,Adult emergence: Intermediates,Spodoptera litura [2]; 5 μg/Insect,0
same,Adult emergence: Non-emergence,Spodoptera litura [2]; 5 μg/Insect,3
same,Adult emergence: Normal adults,Spodoptera litura [2]; 5 μg/Insect,37
same,Larval mortality (%),Spodoptera litura [2]; 5 μg/Insect,36%
same,Pupal Formation: Abnormal pupa,Spodoptera litura [2]; 5 μg/Insect,6
same,Pupal Formation: Normal pupa,Spodoptera litura [2]; 5 μg/Insect,58
same,Pupal Formation: Pupal Mortality,Spodoptera litura [2]; 5 μg/Insect,5
same,Adult emergence: Abnormal adults,Spodoptera litura [2]; 10 μg/Insect,19
same,Adult emergence: Intermediates,Spodoptera litura [2]; 10 μg/Insect,1
same,Adult emergence: Non-emergence,Spodoptera litura [2]; 10 μg/Insect,2
same,Adult emergence: Normal adults,Spodoptera litura [2]; 10 μg/Insect,28
same,Larval mortality (%),Spodoptera litura [2]; 10 μg/Insect,46%
same,Pupal Formation: Abnormal pupa,Spodoptera litura [2]; 10 μg/Insect,10
same,Pupal Formation: Normal pupa,Spodoptera litura [2]; 10 μg/Insect,44
same,Pupal Formation: Pupal Mortality,Spodoptera litura [2]; 10 μg/Insect,6
same,Adult emergence: Abnormal adults,Spodoptera litura [2]; 20 μg/Insect,17
same,Adult emergence: Intermediates,Spodoptera litura [2]; 20 μg/Insect,21
same,Adult emergence: Non-emergence,Spodoptera litura [2]; 20 μg/Insect,2
same,Adult emergence: Normal adults,Spodoptera litura [2]; 20 μg/Insect,15
same,Larval mortality (%),Spodoptera litura [2]; 20 μg/Insect,59%
same,Pupal Formation: Abnormal pupa,Spodoptera litura [2]; 20 μg/Insect,16
same,Pupal Formation: Normal pupa,Spodoptera litura [2]; 20 μg/Insect,25
same,Pupal Formation: Pupal Mortality,Spodoptera litura [2]; 20 μg/Insect,7
same,Adult emergence: Abnormal adults,Spodoptera litura [2]; 35 μg/Insect,11
same,Adult emergence: Intermediates,Spodoptera litura [2]; 35 μg/Insect,2
same,Adult emergence: Non-emergence,Spodoptera litura [2]; 35 μg/Insect,3
same,Adult emergence: Normal adults,Spodoptera litura [2]; 35 μg/Insect,9
same,Larval mortality (%),Spodoptera litura [2]; 35 μg/Insect,71%
same,Pupal Formation: Abnormal pupa,Spodoptera litura [2]; 35 μg/Insect,10
same,Pupal Formation: Normal pupa,Spodoptera litura [2]; 35 μg/Insect,19
same,Pupal Formation: Pupal Mortality,Spodoptera litura [2]; 35 μg/Insect,7
same,Adult emergence: Abnormal adults,Spodoptera litura [2]; 50 μg/Insect,9
same,Adult emergence: Intermediates,Spodoptera litura [2]; 50 μg/Insect,3
same,Adult emergence: Non-emergence,Spodoptera litura [2]; 50 μg/Insect,1
same,Adult emergence: Normal adults,Spodoptera litura [2]; 50 μg/Insect,4
same,Larval mortality (%),Spodoptera litura [2]; 50 μg/Insect,80%
same,Pupal Formation: Abnormal pupa,Spodoptera litura [2]; 50 μg/Insect,13
same,Pupal Formation: Normal pupa,Spodoptera litura [2]; 50 μg/Insect,7
same,Pupal Formation: Pupal Mortality,Spodoptera litura [2]; 50 μg/Insect,4
same,Adult emergence: Abnormal adults,Spodoptera litura [2]; 75 μg/Insect,2
same,Adult emergence: Intermediates,Spodoptera litura [2]; 75 μg/Insect,0
same,Adult emergence: Non-emergence,Spodoptera litura [2]; 75 μg/Insect,2
same,Adult emergence: Normal adults,Spodoptera litura [2]; 75 μg/Insect,2
same,Larval mortality (%),Spodoptera litura [2]; 75 μg/Insect,91%
same,Pupal Formation: Abnormal pupa,Spodoptera litura [2]; 75 μg/Insect,7
same,Pupal Formation: Normal pupa,Spodoptera litura [2]; 75 μg/Insect,2
same,Pupal Formation: Pupal Mortality,Spodoptera litura [2]; 75 μg/Insect,5
same,Adult emergence: Abnormal adults,Spodoptera litura [2]; 100 μg/Insect,1
same,Adult emergence: Intermediates,Spodoptera litura [2]; 100 μg/Insect,0
same,Adult emergence: Non-emergence,Spodoptera litura [2]; 100 μg/Insect,0
same,Adult emergence: Normal adults,Spodoptera litura [2]; 100 μg/Insect,0
same,Larval mortality (%),Spodoptera litura [2]; 100 μg/Insect,98%
same,Pupal Formation: Abnormal pupa,Spodoptera litura [2]; 100 μg/Insect,2
same,Pupal Formation: Normal pupa,Spodoptera litura [2]; 100 μg/Insect,0
same,Pupal Formation: Pupal Mortality,Spodoptera litura [2]; 100 μg/Insect,1
